# Measured values reported in US12616698B2, “Methods for reducing liver fat and for treating fatty liver disorders” (Corcept Therapeutics Incorporated, priority 2021, dated 2026).
# “Also recorded” adds a separate entry of the source.
# Tests used:
# [1] = Example 6 study: pharmacokinetics; conditions: human, in vivo, oral; one patient (FIG. 13)
# [2] = Phase 2a study: body weight and plasma lipids; assay type: in vivo, human; conditions: patients who responded to miricorilant treatment (FIG. 4)
# Procedure: Measures of the effectiveness of miricorilant versus placebo in reducing liver fat were assessed by magnetic resonance imaging (MRI). The change from baseline MRI measurements relative to MRI measurements taken following a course of daily miricorilant or placebo administration were assessed by magnetic resonance imaging-proton density fat fraction (MRI-PDFF). Additionally, effects of miricorilant may be assessed by measuring one or more of the following, either by comparing change from baseline after one or more days of miricorilant administration, or by comparing measurements in patients administered miricorilant versus patients administered placebo: change in liver fat assessed by MRI-PDFF; change in AST, ALT, and gamma-glutamyl transferase (GGT); change in propeptide of type III collagen (pro-C3); change in enhanced liver fibrosis (ELF) score and its components (hyaluronic acid, tissue inhibitor of metalloproteinases-1 [TIMP-1], type III procollagen [PIIINP]); change in ACTH, serum cortisol, and serum aldosterone (pharmacodynamic assessments); change in Homeostatic Model Assessment of Insulin Resistance (HOMA-IR); change in absolute body weight; and other measurements. […] For patients with diabetes, change in HbA1c and change in fasting blood glucose may be measured to assess the effects of miricorilant. […]
# (§1) Liver enzyme levels were measured in the patients.
# [3] = test system: patients presumed to have NASH; assay: Phase 2a study: liver enzymes (ALT, AST), bilirubin, Hy's Law (eDISH plot); assay type: in vivo, human
# From the text: A Phase 2a, randomized, double-blind, placebo-controlled study (ClinicalTrials.gov Identifier: NCT03823703) was begun to assess the efficacy of two dose levels of miricorilant versus placebo in reducing liver fat in patients who were presumed to have non-alcoholic steatohepatitis (NASH), that presumption based on blood tests and noninvasive measures. Written informed consent was obtained before initiating any study-mandated procedures. The full study was planned to enroll approximately 120 patients, randomized 1:1:1 to receive daily 900 mg miricorilant:600 mg miricorilant: matching placebo.
# Other endpoints monitoring and assessment for safety for all study participants. Safety endpoints included the incidence of TEAEs, AEs, and SAEs; changes from Baseline in clinical laboratory tests (hematology and chemistry panels); changes from Baseline in physical examinations and vital sign measurements; changes from Baseline in ECG parameters.
# as §1
# Bilirubin and liver enzyme levels were measured in the patients at baseline. […] Bilirubin and ALT levels that combined are placed in the upper right quadrant of the graph, labelled “Hy's Law Quadrant”, indicate that the patient is at high risk of severe hepatocellular injury. The cholestasis quadrant is the location on the graph where bilirubin levels are greater than twice the ULN for bilirubin. The “Temple's Corollary” quadrant is the location on the graph where peak ALT levels are greater than 3 times the ULN for ALT, but bilirubin levels are less than twice the ULN for bilirubin.
# [4] = test system: Male C57 mice; assay: High-fat diet mice: liver triglycerides and plasma AST; assay type: in vivo, mouse; conditions: 60 mg/kg once a day oral gavage
# Procedure: Male C57 mice (n=24) were given a diet containing […] (a high-fat, “fast food” diet) for 3 weeks. Miricorilant (60 mg/kg) was administered once a day via oral gavage. Plasma aspartate aminotransferase (AST) was measured on days 3, 7, 12, and 18 and 6 mice were sacrificed each week at weeks 1, 2, and 3 for the miricorilant groups and at week 3 for the control (high-fat diet, no miricorilant) group for assessment of liver triglycerides.
# [5] = test system: patients with presumed NASH; assay: Example 6 study, dosing-regimen cohorts: liver fat content (MRI-PDFF) and markers; assay type: in vivo, human; conditions: for Mean reduction in LFC: Week 6 (FIG. 10)
# Procedure: This study was a double-blind, multi-center, placebo-controlled, randomized 3-arm phase 2a study (NCT03823703) conducted to assess the safety and efficacy of miricorilant in reducing liver fat content (LFC) in patients with presumed NASH. Adult patients (18-75 years) with presumed NASH were randomized 1:1:1 to miricorilant 600 mg daily, miricorilant 900 mg daily, or placebo for 12 weeks. […] Abbreviations used in this Example and in the Figures include: ALP, alkaline phosphatase; ALT, alanine aminotransferase; AST, aspartate aminotransferase; ELF, enhanced liver fibrosis; LFC, liver fat content; NASH, non-alcoholic steatohepatitis; ULN, upper limit of normal; AUC, area under the concentration-time curve; Cmax, maximum concentration; EOT, end of treatment; GGT, gamma-glutamyltransferase; INR, international normalized ratio; MRI-PDFF, magnetic resonance imaging-proton density fat fraction; pt, patient; SD, standard deviation; ULN, upper limit of normal; Wk, week.
# Key inclusion criteria included that the patients be adults between 18-75 years old; be presumed to suffer from NASH with fibrosis; have LFC as measured by MRI-PDFF≥8%; have levels of AST<5×ULN and ALT<5×ULN; and have eGFR>60 mL/min/1.73 m^2. Primary endpoints included relative change in LFC from baseline by MRI-PDFF. Secondary endpoints included change from baseline in AST, ALT, GGT, and change from baseline in ELF score.
# Patients were divided into different cohorts and received different regimens of miricorilant. The cohorts included patients receiving 30 mg mircorilant once per day; patients receiving 50 mg mircorilant once per day; patients receiving 100 mg mircorilant once per day; patients receiving 150 mg mircorilant once per day; patients receiving 100 mg mircorilant on Mondays, Wednesdays, and Fridays; patients receiving 100 mg mircorilant on Mondays and Fridays; and patients receiving 200 mg mircorilant once per week. Patients receiving 100 mg mircorilant on Mondays and Fridays were termed “Cohort 6”.
smiles,measurement,setting,value
"O=c1[nH]c(=O)c(Cc2cccc(C(F)(F)F)c2)c([C@H]2CC[C@H](c3ccccc3)CC2)[nH]1 [miricorilant, (E)-6-(4-Phenylcyclohexyl)-5-(3-trifluoromethylbenzyl)-1H-pyrimidine-2,4-dione]",AUC,[1],5900 ng·h/mL
same,Cmax,[1],404 ng/mL
same,Changes in body weight,[2],No significant changes
same,Change in ALP or bilirubin levels,[3]; 600 or 900 mg daily,No significant change
same,Hy's Law criteria (total bilirubin >2x ULN and ALT or AST >3x ULN),"[3]; 600 or 900 mg daily, eDISH plot FIG. 5",No patient in this study satisfied the criteria for Hy's Law; also recorded: no patient met Hy's Law criteria
same,Transaminase elevations upon discontinuation of miricorilant,[3]; all patients,resolved rapidly
same,AST Max,"[3]; patient 208-4020, 900 mg, 30 days on treatment, baseline 45",772 U/L
same,ALT Max,"[3]; patient 208-4020, 900 mg, 30 days on treatment, baseline 69",1378 U/L
same,AST Max,"[3]; patient 211-4002, 900 mg, 31 days on treatment, baseline 32",113 U/L
same,ALT Max,"[3]; patient 211-4002, 900 mg, 31 days on treatment, baseline 50",386 U/L
same,AST Max,"[3]; patient 214-4007, 900 mg, 44 days on treatment, baseline 30",376 U/L
same,ALT Max,"[3]; patient 214-4007, 900 mg, 44 days on treatment, baseline 38",848 U/L
same,AST Max,"[3]; patient 233-4018, 600 mg, 34 days on treatment, baseline 26",391 U/L
same,ALT Max,"[3]; patient 233-4018, 600 mg, 34 days on treatment, baseline 41",955 U/L
same,Effect on liver enzymes ALT and AST,"[3]; patients with presumed NASH, 600 or 900 mg daily for 30-44 days",isolated rise; also recorded: increase
same,Liver triglycerides,"[4]; high-fat diet for 3 weeks, starting at week 1, vs high-fat diet control (FIG. 6A)",rapid reduction
same,Plasma AST,"[4]; high-fat diet, no change in dose (FIG. 6B)",transient increase at 2 weeks but normalized by 3 weeks
same,Lipid levels (LDL and VLDL),"[5]; 100 mg twice per week, Mondays and Fridays (FIG. 16)",reductions
same,Glycemic markers,"[5]; 100 mg twice per week, Mondays and Fridays (FIG. 17)",reductions
same,Fibrosis markers,"[5]; 100 mg twice per week, Mondays and Fridays (FIG. 18)",reductions
same,LFC (MRI-PDFF) and liver enzyme levels (ALT and AST),"[5]; 100 mg twice per week, Mondays and Fridays, twelve weeks (FIG. 15)",reductions
same,Reduction in liver fat,"[5]; 100 mg twice weekly, over 12 weeks",−30%
same,LFC mean % change from baseline,"[5]; Cohort 6, miricorilant 100 mg twice weekly, week 12",−28.2%
same,LFC mean % change from baseline,"[5]; daily doses of miricorilant 50-150 mg, week 6",−22.3%
same,"Hepatic, lipid, and glycemic markers","[5]; miricorilant treatment, including 100 mg twice weekly",improvements; also recorded: improved
same,Weight loss,[5]; patients whose ALT and/or AST levels remain below 3 times normal,significant
same,Weight loss,[5]; patients whose ALT and/or AST levels rise above 3 times normal,even greater than for the other group
same,Slope of LFC decline,[5]; responders with ALT>3×ULN,−8.76
same,Slope of LFC decline,[5]; responders without ALT>3×ULN,−4.24
same,Mean reduction in LFC,[5]; treatment responders with ALT>3×ULN,−52.6%
same,Mean reduction in LFC,[5]; treatment responders without ALT>3×ULN,−25.5%
